Source: article PMC8536575, “Acute effects of the imidacloprid metabolite desnitro-imidacloprid on human nACh receptors relevant for neuronal signaling” (Archives of Toxicology, 2021)

Columns and labels:
nAChRs on LUHMES neurons [1] = assay: High-throughput Ca2+-imaging of LUHMES neurons (agonist effect); format: cell-based, human
Experimental: For Ca^2+-imaging, the cells were pre-differentiated for 48 h in cell culture flasks, detached and plated at a density of 20,000 cells and 30,000 cells per well on 0.1% PEI-coated 384-well and 96-well plates (Greiner Bio-One), respectively, for the Ca^2+-imaging. The cells were further differentiated for another 7 days. 50% of the medium was exchanged every 2–3 days.
(§1) Ca^2+-imaging was performed using HT Functional Drug Screening System FDSS/µCELL (Hamamatsu Photonics) at nominal 37 °C. The FDSS/µCell system enables the indirect recording of changes of [Ca^2+]i via a Ca^2+-sensitive fluorescent dye. The fluorescence signal of a complete 384-well plate is acquired at once with a high-speed and high-sensitivity digital ImagEM X2 EM-CCD camera (Electron Multiplying Charge-Coupled Device, Hamamatsu Photonics), but with limited spatial resolution. Therefore, the software only determines the mean fluorescence signal of each well rather than of individual cells. For compound application, the integrated dispenser head with 384 pipette tips was used, which can add the test compound to all wells simultaneously. Cells were preincubated with Cal-520 AM (AAT Bioquest) at a concentration of 1 µM for 1 h at 37 °C. For recording, the medium was exchanged by a buffer solution containing [mM]: 135 NaCl, 5 KCl, 0.2 MgCl2, 2.5 CaCl2, 10 HEPES, and 10 D-glucose, pH 7.4. Test compound application was executed after obtaining a 1.5 min baseline recording. Where applicable, a second application was executed 4.5 min after the first application. The total recording never exceeded 8 min.
(§2) For the high-throughput Ca^2+-imaging data obtained in LUHMES cells, an offset correction using the FDSS software (version 3.2) was performed. Afterward, the data were exported and further analyzed with scripts written in R (version 3.6.3) (R Core Team [2020]). The concentration–response curves were fitted using a log-logistic model described by Ritz et al. ([2015]), utilizing the R package drc with its function drm() and LL2.2() with the following equation: f(x) = d/[1 + exp(b(log(x) − ẽ))] (Ritz et al. [2015]). The logarithm of the half-maximal effective concentration (logEC50) between 0 and the upper limit (d), which was set to 1, is represented by ẽ, x denotes the concentration, and b stands for the slope parameter (Ritz et al. [2015]). In cases with normalizations to responses induced by other compounds, the function LL2.3() was used with a variable upper limit (d; Ritz et al. [2015]). The same equation was used to determine the half-maximal inhibitory concentration (logIC50). Then the logEC50 and logIC50 values were converted into the pIC50 and pEC50 values, which are the negative logarithms to base 10.

human α3β4 nAChR = target: T1, human α3β4 nAChR (Homo sapiens, UniProt P30926+P32297); assay: Two-electrode voltage-clamp recordings, Xenopus laevis oocytes expressing human α3β4 nAChR; format: cell-based
T1 construct: expressed in transfected cells; host or cells: Xenopus laevis oocytes, mRNA injection, 0.33 ng α3 and 3.33 ng β4

nAChRs on LUHMES neurons [2] = assay: Desensitization of nAChR agonist-evoked [Ca2+]i responses of LUHMES neurons; format: cell-based, human
Experimental: as §1, §2
Fig. 4 Desensitizing effects of DN-IMI and IMI-olefin on nAChRs. LUHMES neurons differentiated in 384-well plates were pretreated with various concentrations of DN-IMI or IMI-olefin for 4.5 min before different nAChR agonists were applied and [Ca^2+]i signals were recorded. […] Note the treatment scheme (upper right corner), illustrating the experimental design. […] Note the treatment scheme (upper right corner), illustrating the experimental design. Detailed data on n numbers are found in Table S6

T1 sequence (P32297 32-505): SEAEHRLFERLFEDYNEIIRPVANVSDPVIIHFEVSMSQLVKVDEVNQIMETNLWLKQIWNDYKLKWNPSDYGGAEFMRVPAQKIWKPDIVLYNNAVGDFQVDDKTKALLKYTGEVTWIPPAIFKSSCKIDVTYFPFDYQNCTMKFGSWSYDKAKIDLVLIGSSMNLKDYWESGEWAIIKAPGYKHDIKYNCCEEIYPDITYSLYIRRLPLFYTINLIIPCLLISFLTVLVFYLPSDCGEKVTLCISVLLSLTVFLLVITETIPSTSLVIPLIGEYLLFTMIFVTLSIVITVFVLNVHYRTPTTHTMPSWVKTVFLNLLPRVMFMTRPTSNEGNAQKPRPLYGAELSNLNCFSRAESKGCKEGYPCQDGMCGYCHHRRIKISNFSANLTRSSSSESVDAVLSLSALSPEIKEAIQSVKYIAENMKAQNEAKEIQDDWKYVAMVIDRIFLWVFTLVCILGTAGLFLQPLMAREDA
T1 sequence (P30926 22-498): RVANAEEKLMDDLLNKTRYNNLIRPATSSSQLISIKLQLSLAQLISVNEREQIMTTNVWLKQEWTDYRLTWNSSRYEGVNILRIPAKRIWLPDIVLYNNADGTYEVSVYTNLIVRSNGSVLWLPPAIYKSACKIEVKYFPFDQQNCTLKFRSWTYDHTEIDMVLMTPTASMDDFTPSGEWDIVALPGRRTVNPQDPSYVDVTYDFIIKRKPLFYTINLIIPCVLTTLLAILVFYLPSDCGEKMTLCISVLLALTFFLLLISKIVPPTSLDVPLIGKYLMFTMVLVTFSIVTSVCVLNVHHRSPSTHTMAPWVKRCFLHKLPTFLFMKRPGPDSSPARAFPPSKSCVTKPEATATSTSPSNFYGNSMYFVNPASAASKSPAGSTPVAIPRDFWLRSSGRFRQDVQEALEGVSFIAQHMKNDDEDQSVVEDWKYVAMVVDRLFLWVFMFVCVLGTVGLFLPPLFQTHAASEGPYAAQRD

SMILES: NC1=NCCN1Cc1ccc(Cl)nc1 [DN-IMI, desnitro-imidacloprid]
- pEC50 of [Ca2+]i response (peak amplitude) (nAChRs on LUHMES neurons [1]; LUHMES neurons, absence of PNU, normalized to the maximal response stimulated by DN-IMI, tested ≤ 100 µM): 6.6
- increase of the maximal amplitude by PNU (nAChRs on LUHMES neurons [1]; PNU-120596 10 µM): around 40%
- upper asymptote, % of the maximal response (nAChRs on LUHMES neurons [1]; absence of PNU): 53%
- relative half maximum (turning point) (nAChRs on LUHMES neurons [1]; absence of PNU, normalized to maximal response to DN-IMI in presence of PNU): 6.8 ± 0.04 -log(M)
- concentrations triggering [Ca2+]i responses (nAChRs on LUHMES neurons [1]; human neurons): ≥ 100 nM
- BMC for 20% response (nAChRs on LUHMES neurons [1]; in different systems ([Ca2+]i signaling and single nAChR data)): 100 to 300 nM
- relative half maximum (turning point) (nAChRs on LUHMES neurons [1]; presence of PNU (10 µM)): 6.5 ± 0.03 -log(M)
- upper asymptote, % of the maximal response (nAChRs on LUHMES neurons [1]; presence of PNU (10 µM)): 93%
- EC50 (human α3β4 nAChR): 12.6 µM
- absolute EC25 (human α3β4 nAChR; from curve-fitted concentration–response data): 5.2 µM
- estimated maximum (human α3β4 nAChR; normalized to nicotine (1 mM)): ~ 0.65
- concentrations inhibiting subsequent activation of nAChRs (desensitization) (nAChRs on LUHMES neurons [2]; BMR10, LUHMES): ≥ 10 nM
- times more potent than IMI (desensitization) (nAChRs on LUHMES neurons [2]; compared to effects of IMI in Loser et al. [2021a]): ~ 70 times
- BMC for receptor desensitization (nAChRs on LUHMES neurons [2]; for a 20% effect): ~ 17 nM
- pIC50 for desensitization of the nicotine-evoked response (nAChRs on LUHMES neurons [2]; pretreatment […], 3 µM nicotine): 6.9
